Measured values published in patent US12415939B2, “Nano-adhesive and surface primer compound and use thereof” (The Regents of the University of California, priority 2015, dated 2025).

How the values were obtained:
[1] = Lap shear test of cured PMA resin on primed mica; settings: first value of each pair (mica)
Procedure: (§1) 1 wt % primer solution was spread on mica, glass, tooth enamel, or a silicon wafer and incubated for 1 min, followed by thorough washing with methanol (for MDP, P1-P3) or DMSO (for P4) and drying by flowing nitrogen. The surfaces were exposed to a basic aqueous solution (pH 9, using sodium hydroxide), incubated for 1 min, and drying by flowing nitrogen (see FIG. 52). The methacrylic comonomer blend (Bis-GMA, TEGDMA, DMAEMA and CQ) was packed in a gelatin capsule (size #4, 5-mm diameter, Torpac Inc.) and placed up on top of the primer-treated substrates. The comonomer blend was cured (or crosslinked) for 1 min using a portable dental curing lamp (Foshan Liang Ya Dental Co., LY-A180, 420-480 nm, 1200-2000 mW·cm^−2) (see FIG. 53). Uniaxial compression was applied to the capsule at a rate of 0.05 inch min^−1 using a materials testing system (MTS Bionix 200) until the capsules are separated from the substrate. The lap shear fracture measurements were repeated at least 10 times for each condition.

[2] = Lap shear test of cured PMA resin on primed silica/glass; settings: second value of each pair (silica)
Procedure: as §1

[3] = Lap shear test of cured PMA resin on primed tooth enamel; design: species or system human
Procedure: as §1

[4] = Contact angle measurements on SAM-modified substrates; type: physicochemical; settings: SAM-modified nano-grooved SiO2
Procedure: The nano-grooved SiO2 substrates passivated with Z-Cat-Ben or Z-Cat-Ben-F SAMs were prepared with the same procedure described above. For the reference substrate, the pre-cleaned and ultraviolet/ozone-treated (for 10 min) nano-grooved SiO2 substrate was passivated with n-decyltrichlorosilane (Gelest Inc.) in toluene solution (1% by volume) at 80° C. for 20 min in ambient air. Then, the substrate was subsequently sonicated in toluene and rinsed with additional toluene several times. Anhydrous chlorobenzene (50 μL) was used as a droplet dropping on the substrates. All contact angle images were taken at the direction perpendicular to nano-grooves in the substrates using Dataphysics OCA 15EC goniometer.

[5] = Surface forces apparatus (SFA) cohesion/adhesion between thin films on mica; type: physicochemical
Procedure: The interaction between two surfaces can be measured with nano-Newton level force resolution and Angstrom level resolution in the separation distance between the surfaces. The details of the SFA techniques have been describe in a work by Israelachvili et al. In a typical SFA experiment (FIG. 2C), the distance and the force between the surfaces are measured simultaneously. To begin with, the instrument is calibrated at large separation distances. When the two surfaces are not interacting, i.e., they are separated by large distances, the change in the separation between them is equal to the distance through which the motor moves the lower surface towards or away from the upper surface (or the upper surface driven by the piezo-tube moves towards the lower surface). However, once the surfaces are close enough to start interacting with each other, the measured separation distance deviates from the expected separation calibrated when there is no force between the surfaces. This deviation is due to the deflection of the double cantilever spring and is directly proportional to the force acting normally between the two opposing surfaces. Thus the normal force can be measured using Hooke's law, F=kΔx, where k is the spring constant of the double-cantilever spring and Δx=Dactual−Dapplied is the deflection of the spring, determined by taking the difference between the applied change in position of one of the surfaces Dapplied and the actual change in distance measured between the surfaces Dactual. The actual distance, Dactual, between the surfaces can be measured by multiple beam interferometry (MBI) and will be discussed below.
The distance between the surfaces, shape of the interface and the refractive index of the media between the surfaces can be accurately determined by Multiple Beam Interferometry (MBI) technique. In this technique, white light is directed through two back-silvered mica surfaces (or uniform and same thickness). As a white light passes between the mica surfaces, it undergoes interference due to the optical trap set up by the back silver on each of these surfaces giving rise to discrete wavelengths of light (FIG. 2C). These wavelengths of light are resolved in a spectrometer creating interference fringes known as ‘fringes of equal chromatic order’ (FECO). Since mica is birefringent, the FECO appears as doublets and termed as β and γ. Alternate fringes are termed as odd and even fringes with odd fringes having nodes at the center and even fringes with anti-nodes in the center. The FECO is then recorded on a camera and analyzed to determine the distance between the surfaces using the following equations: […]
The adhesion/cohesion energy of the synthetic zwitterionic molecules was investigated in SFA (SurForce LLC, Santa Barbara, CA). Two molecularly smooth freshly cleaved back silvered mica surfaces glued on cylindrical silica discs of radius of curvature, R˜2 cm, were mounted in the SFA and 50 μL of a colloidal dispersion of the synthetic molecules in DI water were injected between the surfaces at different concentrations (C=0.5-5 mM) and the forces between the thin films of the molecules were measured by Multiple Beam Interferometry (MBI). The adhesion forces between Z-Cat-C10 molecules on various surfaces, e.g., silica and copper, were also measured by AFM (MFP-3D, Asylum research, Goleta, CA) in DI water and ambient conditions, respectively, at room temperature. AFM probes with a silicon dioxide particle (10, 5, and 1 μm, respectively) on a silicon nitride (SN) cantilever-0.6 N m^−1 were purchased from Novascan Technologies, Inc (Ames, IA). Cantilever spring constants were measured for each force run. Images of Z-Cat-C10 coating on silicon wafer and copper plates were visualized in an AFM. […]

[6] = Cyclic voltammetry of catechol oxidation; type: physicochemical; settings: 5 mM in DI water
Procedure: (§2) Cyclic voltammetry was performed on a Versastat 3 potentiostat from Ametek Co. These analyses were carried out using a three-electrode cell: a Pt wire as the counter electrode, an Ag/AgCl reference electrode, and a Carbon paste electrode (CPE) served as the working electrode. CPE is the best choice for adhesive materials because of its ability to be completely polished before each experiment. Catechol auto-oxidation was avoided by performing all electrochemical experiments with degassed deionized water in a glove bag under argon. Scan rate 1 mV s-1 was used for all experiments. CV of 5 mM synthesized polymers and 5 mM methyl catechol, a simple catechol-containing compound, were compared. Oxidation of Catechol carrying molecules occurred at more positive potentials than methyl catechol, indicating the unique structure of the dispersions provide shielding effects that stabilized catechol groups (FIG. 3).
Cyclic voltammetry was performed on a Versastat 3 potentiostat from Ametek Co. (Berwyn, PA). These analyses were carried out using a three-electrode cell: a Pt wire as the counter electrode, an Ag/AgCl reference electrode, and a Carbon paste electrode (CPE) served as the working electrode. CPE is the best choice for adhesive materials because of its ability to be completely polished before each experiment.
as §2, with “s^−1” for “s-1”, “molecules” for “polymers”, “groups. Z-Cat-Ben with an oxidation peak at 840 mV is more resistant to oxidation than the other species” for “groups”, “42).” for “3).”

[7] = OFET characterization (saturation hole mobility)
Description: The OFETs were fabricated onto nano-grooved SiO2 substrates prepared by rubbing n^++Si (500 μm)/SiO2 (300 nm) substrate (International Wafer Services Co.) with a diamond lapping disc with particle sizes of 100 nm (Allied High Tech Products Inc.) as described in detail in the previous reports. The Ni (5 nm)/Au (50 nm) source and drain electrodes were patterned on the SiO2 dielectrics through a conventional photolithography process. For OFETs with Ni source and drain electrodes, an additional Ni (10 nm) layer was deposited on top of the pre-deposited Au electrodes. All metal electrodes were deposited by electron beam evaporation at 7×10^−7 Torr. Then, the substrates were sonicated in acetone and isopropanol for cleaning, and were kept in an oven at >100° C. for overnight. After ultraviolet/ozone treatment of pre-cleaned nano-grooved SiO2 substrates for 10 min, the substrates were passivated with the Z-Cat-Ben or Z-Cat-Ben-F SAM by dropping SAM water solution (5 mM) onto the substrates for ˜1 min. The substrates were subsequently rinsed with deionized water for ˜1 min, and were kept in a low vacuum for 10 min to remove residual water. The PCDTPT (1-Material Inc.) was then cast from a chlorobenzene solution (0.25 mg mL^−1) through the sandwich casting in a nitrogen-filled glove box. The devices were then cured at 200° C. for 1 min prior to measurements, and were tested using a probe station (Signatone Co.) in a nitrogen-filled glove box. Data were collected by a Keithley 4200 system.
The field-effect mobilities in the saturation regime were extracted using the following equation, IDS=(W/2L)Cμ(VGS−VT)^2 (7) where, W is the channel width, L is the channel length, C is the gate dielectric capacitance per unit area, μ is the carrier mobility in the saturation regime, IDS is the drain-source current, and VGS is the gate-source voltage. Channel width/length is 1000/200 μm for the devices used in this study. Transistor Characteristics of OFETs with Z-Cat-Ben and Z-Cat-Ben-F: Contact Angle Measurements: […]

| SMILES | lap shear strength σshear,max [1] [MPa] | lap shear strength σshear,max [2] [MPa] | lap shear strength σshear,max [3] | contact angle θ of chlorobenzene droplet [4] [°] | cohesion energy Wc between SAMs ([5]; 5 mM in DI water, mica) [mJ/m^2] | hard-wall thickness ([5]; SAMs from 5 mM, mica) [nm] | SAM thickness on each mica surface ([5]; half of hard-wall) [nm] | stability in water to oxidation (shelf life) [6] | saturation hole mobility μ ([7]; Au source and drain electrodes) [cm^2 V^−1 s^−1] | saturation hole mobility ([7]; Ni source and drain electrodes) [cm^2 V^−1 s^−1] |
| --- | --- | --- | --- | --- | --- | --- | --- | --- | --- | --- |
| C=CC(=O)OCCC[Si](OC)(OC)OC [Silane, 3-trimethoxysilylpropyl acrylate, reference compound] | 0.9±0.4 | 3.8±1.1 | no increase in the lap shear strength |  |  |  |  |  |  |  |
| C[N+](C)(CCCc1cc(C(F)(F)F)cc(C(F)(F)F)c1)CCOP(=O)([O-])OCCCc1ccc(O)c(O)c1 [Z-Cat-Ben-F] |  |  |  | < 10 | 3.3±1.0 | 2.6±0.4 | ~1.3 | stable (shelf life) in water to oxidation | 26±5 | 46±4 |
